# Source: US4112097A, “Antihypertensive agents” (Abbott Laboratories, priority 1977, dated 1978)
# Structures can show the parent of a compound that is named as a salt.
# Tests used:
# [1] = tested on: spontaneously hypertensive (SH) rats; test: Antihypertensive effect (blood pressure and heart rate) in spontaneously hypertensive rats; assay type: in vivo, rat; details: for Percent Change BP (blood pressure) / Percent Change HR (heart rate): N=4, mean; for Percent Change (antihypertensive effect): individual values of 2 rats
# Description: The screening is conducted as follows:
# Male spontaneously hypertensive (SH) rats are trained to be restrained in a wire mesh cylinder in a warming box, at least two training cycles being conducted before testing. The rats are warmed for about 1/2 hour period to blood pressure measurement, the warming box being maintained at a constant temperature of 36° C.
# An occluding cuff attached to the programed sphymomanometer is placed near the base of the tail of each rat and the pressure in the cuff is increased automatically from 0 to 250 milimeters of mercury (mm Hg) at a rate of 10 mm Hg per second. The total time for each cycle of inflation and deflation of the cuff is 50 seconds and the interval between cycles is one minute.
# A photocell is placed distal to the cuff to record the pulses due to forward motion of blood flow with each heart beat. As the pressure in the cuff increases, the pulse disappears completely at a point where cuff pressure equals or exceeds the arterial blood pressure and it reappears during deflation at approximately the same pressure. Five interference free signals for deflation are recorded for each rat. Rats with a blood pressure of 180 mm Hg or more during the control period are used in the study. Blood pressure and heart rate readings are recorded on a model VII Grass polygraph at intervals of 1, 3, 5 and 24 hours after administration of the drug.
# physchem = details: water
# Description: The water in the filtrate was removed in vacuo and the residue weighed and found to be 16.7 mg.
# [2] = intraperitoneal 0.3 mg/kg, 1 hour
# [3] = intraperitoneal 0.3 mg/kg, 3 hours
# [4] = intraperitoneal 0.3 mg/kg, 5 hours
# [5] = intraperitoneal 0.3 mg/kg, 24 hours
# [6] = intraperitoneal 1 mg/kg, 1 hour
# [7] = intraperitoneal 1 mg/kg, 3 hours
# [8] = intraperitoneal 1 mg/kg, 5 hours
# [9] = intraperitoneal 1 mg/kg, 24 hours
# [10] = intraperitoneal 3 mg/kg, 1 hour
# [11] = intraperitoneal 3 mg/kg, 3 hours
# [12] = intraperitoneal 3 mg/kg, 5 hours
# [13] = intraperitoneal 3 mg/kg, 24 hours
# [14] = intraperitoneal 10 mg/kg, 1 hour
# [15] = intraperitoneal 10 mg/kg, 3 hours
# [16] = intraperitoneal 10 mg/kg, 5 hours
# [17] = intraperitoneal 10 mg/kg, 24 hours
# [18] = intraperitoneal 30 mg/kg, 1 hour
# [19] = intraperitoneal 30 mg/kg, 3 hours
# [20] = intraperitoneal 30 mg/kg, 5 hours
# [21] = intraperitoneal 30 mg/kg, 24 hours
smiles,measurement,setting,value
"COc1cc2nc(N3CCN(C(=O)C4CCCO4)CC3)nc(N)c2cc1OC (centres unmarked) [Formula II, 2[4(tetrahydro-2-furoyl)-piperazino]-4-amino-6,7-dimethoxyquinazoline]",antihypertensive effect in words,[1]; SH rats,potent antihypertensive agents which lower the blood pressure of spontaneously hypertensive rats
same,heart rate in words,[1]; SH rats,without causing any significant changes in heart rate
same,Percent Change BP (blood pressure),[1]; [2],-22.3%
same,Percent Change HR (heart rate),[1]; [2],20.0%
same,Percent Change BP (blood pressure),[1]; [3],-26.5%
same,Percent Change HR (heart rate),[1]; [3],10.3%
same,Percent Change BP (blood pressure),[1]; [4],-20.5%
same,Percent Change HR (heart rate),[1]; [4],14.3%
same,Percent Change BP (blood pressure),[1]; [5],2.5%
same,Percent Change HR (heart rate),[1]; [5],10.0%
same,Percent Change BP (blood pressure),[1]; [6],-26.5%
same,Percent Change HR (heart rate),[1]; [6],22.8%
same,Percent Change BP (blood pressure),[1]; [7],-27.5%
same,Percent Change HR (heart rate),[1]; [7],2.8%
same,Percent Change BP (blood pressure),[1]; [8],-17.0%
same,Percent Change HR (heart rate),[1]; [8],11.5%
same,Percent Change BP (blood pressure),[1]; [9],3.8%
same,Percent Change HR (heart rate),[1]; [9],-9.5%
same,Percent Change BP (blood pressure),[1]; [10],-45.3%
same,Percent Change HR (heart rate),[1]; [10],7.8%
same,Percent Change BP (blood pressure),[1]; [11],-39.0%
same,Percent Change HR (heart rate),[1]; [11],-1.5%
same,Percent Change BP (blood pressure),[1]; [12],-40.0%
same,Percent Change HR (heart rate),[1]; [12],3.0%
same,Percent Change BP (blood pressure),[1]; [13],-2.3%
same,Percent Change HR (heart rate),[1]; [13],-0.5%
same,Percent Change BP (blood pressure),[1]; [14],-49.8%
same,Percent Change HR (heart rate),[1]; [14],9.0%
same,Percent Change BP (blood pressure),[1]; [15],-41.5%
same,Percent Change HR (heart rate),[1]; [15],24.5%
same,Percent Change BP (blood pressure),[1]; [16],-41.8%
same,Percent Change HR (heart rate),[1]; [16],34.5%
same,Percent Change BP (blood pressure),[1]; [17],-7.5%
same,Percent Change HR (heart rate),[1]; [17],14.0%
same,Percent Change BP (blood pressure),[1]; [18],-59.5%
same,Percent Change HR (heart rate),[1]; [18],-9.0%
same,Percent Change BP (blood pressure),[1]; [19],-42.3%
same,Percent Change HR (heart rate),[1]; [19],1.8%
same,Percent Change BP (blood pressure),[1]; [20],-44.5%
same,Percent Change HR (heart rate),[1]; [20],5.3%
same,Percent Change BP (blood pressure),[1]; [21],-22.3%
same,Percent Change HR (heart rate),[1]; [21],5.8%
same,Percent Change BP (blood pressure),"[1]; oral 0.03 mg/kg, 1 hour",-5.3%
same,Percent Change HR (heart rate),"[1]; oral 0.03 mg/kg, 1 hour",-4.3%
same,Percent Change BP (blood pressure),"[1]; oral 0.03 mg/kg, 3 hours",-1.8%
same,Percent Change HR (heart rate),"[1]; oral 0.03 mg/kg, 3 hours",-8.5%
same,Percent Change BP (blood pressure),"[1]; oral 0.03 mg/kg, 5 hours",-9.3%
same,Percent Change HR (heart rate),"[1]; oral 0.03 mg/kg, 5 hours",-14.5%
same,Percent Change BP (blood pressure),"[1]; oral 0.03 mg/kg, 24 hours",-3.3%
same,Percent Change HR (heart rate),"[1]; oral 0.03 mg/kg, 24 hours",-8.8%
same,Percent Change BP (blood pressure),"[1]; oral 0.1 mg/kg, 1 hour",3.8%
same,Percent Change HR (heart rate),"[1]; oral 0.1 mg/kg, 1 hour",3.0%
same,Percent Change BP (blood pressure),"[1]; oral 0.1 mg/kg, 3 hours",1.8%
same,Percent Change HR (heart rate),"[1]; oral 0.1 mg/kg, 3 hours",4.8%
same,Percent Change BP (blood pressure),"[1]; oral 0.1 mg/kg, 5 hours",-7.3%
same,Percent Change HR (heart rate),"[1]; oral 0.1 mg/kg, 5 hours",-6.8%
same,Percent Change BP (blood pressure),"[1]; oral 0.1 mg/kg, 24 hours",-1.5%
same,Percent Change HR (heart rate),"[1]; oral 0.1 mg/kg, 24 hours",-0.3%
same,Percent Change BP (blood pressure),"[1]; oral 0.3 mg/kg, 1 hour",-15.8%
same,Percent Change HR (heart rate),"[1]; oral 0.3 mg/kg, 1 hour",-1.0%
same,Percent Change BP (blood pressure),"[1]; oral 0.3 mg/kg, 3 hours",-22.8%
same,Percent Change HR (heart rate),"[1]; oral 0.3 mg/kg, 3 hours",-2.8%
same,Percent Change BP (blood pressure),"[1]; oral 0.3 mg/kg, 5 hours",-21.3%
same,Percent Change HR (heart rate),"[1]; oral 0.3 mg/kg, 5 hours",-2.8%
same,Percent Change BP (blood pressure),"[1]; oral 0.3 mg/kg, 24 hours",2.0%
same,Percent Change HR (heart rate),"[1]; oral 0.3 mg/kg, 24 hours",10.5%
same,Percent Change BP (blood pressure),"[1]; oral 1 mg/kg, 1 hour",-15.8%
same,Percent Change HR (heart rate),"[1]; oral 1 mg/kg, 1 hour",-9.0%
same,Percent Change BP (blood pressure),"[1]; oral 1 mg/kg, 3 hours",-17.3%
same,Percent Change HR (heart rate),"[1]; oral 1 mg/kg, 3 hours",-9.3%
same,Percent Change BP (blood pressure),"[1]; oral 1 mg/kg, 5 hours",-22.5%
same,Percent Change HR (heart rate),"[1]; oral 1 mg/kg, 5 hours",-8.5%
same,Percent Change BP (blood pressure),"[1]; oral 1 mg/kg, 24 hours",3.5%
same,Percent Change HR (heart rate),"[1]; oral 1 mg/kg, 24 hours",-4.5%
same,Percent Change BP (blood pressure),"[1]; oral 3 mg/kg, 1 hour",-29.0%
same,Percent Change HR (heart rate),"[1]; oral 3 mg/kg, 1 hour",-9.3%
same,Percent Change BP (blood pressure),"[1]; oral 3 mg/kg, 3 hours",-33.3%
same,Percent Change HR (heart rate),"[1]; oral 3 mg/kg, 3 hours",-11.0%
same,Percent Change BP (blood pressure),"[1]; oral 3 mg/kg, 5 hours",-31.5%
same,Percent Change HR (heart rate),"[1]; oral 3 mg/kg, 5 hours",-11.0%
same,Percent Change BP (blood pressure),"[1]; oral 3 mg/kg, 24 hours",-12.3%
same,Percent Change HR (heart rate),"[1]; oral 3 mg/kg, 24 hours",-5.3%
same,Percent Change BP (blood pressure),"[1]; oral 10 mg/kg, 1 hour",-37.0%
same,Percent Change HR (heart rate),"[1]; oral 10 mg/kg, 1 hour",12.3%
same,Percent Change BP (blood pressure),"[1]; oral 10 mg/kg, 3 hours",-42.0%
same,Percent Change HR (heart rate),"[1]; oral 10 mg/kg, 3 hours",16.5%
same,Percent Change BP (blood pressure),"[1]; oral 10 mg/kg, 5 hours",-38.0%
same,Percent Change HR (heart rate),"[1]; oral 10 mg/kg, 5 hours",-10.3%
same,Percent Change BP (blood pressure),"[1]; oral 10 mg/kg, 24 hours",-12.0%
same,Percent Change HR (heart rate),"[1]; oral 10 mg/kg, 24 hours",1.5%
same,Percent Change BP (blood pressure),"[1]; oral 30 mg/kg, 1 hour",-30.0%
same,Percent Change HR (heart rate),"[1]; oral 30 mg/kg, 1 hour",-9.8%
same,Percent Change BP (blood pressure),"[1]; oral 30 mg/kg, 3 hours",-23.8%
same,Percent Change HR (heart rate),"[1]; oral 30 mg/kg, 3 hours",-8.8%
same,Percent Change BP (blood pressure),"[1]; oral 30 mg/kg, 5 hours",-26.0%
same,Percent Change HR (heart rate),"[1]; oral 30 mg/kg, 5 hours",-15.5%
same,Percent Change BP (blood pressure),"[1]; oral 30 mg/kg, 24 hours",-4.0%
same,Percent Change HR (heart rate),"[1]; oral 30 mg/kg, 24 hours",-8.0%
"COc1cc2nc(N3CCN(C(=O)C4CCCCO4)CC3)nc(N)c2cc1OC (centres unmarked) [Formula III, 2-[4(tetrahydropyran-2-carbonyl)piperazinyl]-4-amino-6,7-dimethoxyquinazoline]",Percent Change (antihypertensive effect),[1]; [18],-58%
same,Percent Change (antihypertensive effect),[1]; [19],-71%
same,Percent Change (antihypertensive effect),[1]; [20],-47%
same,Percent Change (antihypertensive effect),[1]; [21],-28%
same,Percent Change (antihypertensive effect),"[1]; oral 1 mg/kg, 1 hour, 1 mg/kg",-34%
same,Percent Change (antihypertensive effect),"[1]; oral 1 mg/kg, 3 hours, 1 mg/kg",-25%
same,Percent Change (antihypertensive effect),"[1]; oral 1 mg/kg, 5 hours, 1 mg/kg",-21%
same,Percent Change (antihypertensive effect),"[1]; oral 1 mg/kg, 24 hours, 1 mg/kg",-7%
"COc1cc2nc(N3CCN(C(=O)C4CCCCO4)CC3)nc(N)c2cc1OC (centres unmarked) [2-[4(Tetrahydropyran-2-Carbonyl)Piperazinyl]-4-Amino-6,7-Dimethoxyquinazoline Hydrochloride]",solubility,physchem,56.5 mg/mL
